Each structure is given as a SMILES string. Structures can show the parent of a compound that is named as a salt.

Consider `COCCOc1ccc(COC(=O)NS(=O)(=O)CCC(C)C)c(Oc2ncc(C(F)(F)F)cc2Cl)c1` [Example 59, 2-{[3-chloro-5-(trifluoromethyl)pyridin-2-yl]oxy}-4-(2-methoxyethoxy)benzyl [(3-methylbutyl)sulfonyl]carbamate], for which the melting point fell in the range of 122 to 124 °C. Under `COCCOc1ccc(CCCOC(=O)NS(N)(=O)=O)c(Oc2ncc(Cl)cc2Cl)c1` [Example 426, 3-[2-[(3,5-dichloropyridin-2-yl)oxy]-4-(2-methoxyethoxy)phenyl]propyl (aminosulfonyl)carbamate] stands 153.2 to 153.8 °C; under `CCCCOc1cc(CCS(=O)(=O)NC(=O)OC(C)C)n(Cc2ccc(Cl)cc2Cl)n1` [Example 139, isopropyl ({2-[3-butoxy-1-(2,4-dichlorobenzyl)-1H-pyrazol-5-yl]ethyl}sulfonyl)carbamate], 120 to 121 °C. Under `CC(C)Oc1cc(CCC(=O)NS(C)(=O)=O)n(Cc2ccc(Cl)cc2Cl)n1` [Example 148, 3-[1-(2,4-dichlorobenzyl)-3-isopropoxy-1H-pyrazol-5-yl]-N-(methylsulfonyl)propanamide] stands 104 to 105 °C. Under `COCCOc1ccc(CCCOC(=O)NS(=O)(=O)NCCc2ccccc2)c(Oc2ncc(C(F)(F)F)cc2Cl)c1` [Example 206, 3-[2-{[3-chloro-5-(trifluoromethyl)pyridin-2-yl]oxy}-4-(2-methoxyethoxy)phenyl]propyl {[(2-phenylethyl)amino]sulfonyl}carbamate] stands 110 to 113 °C. The molecule `COCCCNS(=O)(=O)NC(=O)OCCCc1ccc(OCCOC)cc1Oc1ncc(Cl)cc1Cl` [Example 428, 3-[2-[(3,5-dichloropyridin-2-yl)oxy]-4-(2-methoxyethoxy)phenyl]propyl {[(3-methoxypropyl)amino]sulfonyl}carbamate] returned a melting point of 87.9 to 89 °C. Molecule `CCCCCC(=O)NS(=O)(=O)/C=C/c1cc(OC(C)C)nn1Cc1ccc(Cl)cc1Cl` [Example 125, N-({(E)-2-[1-(2,4-dichlorobenzyl)-3-isopropoxy-1H-pyrazol-5-yl]vinyl}sulfonyl)hexanamide] displayed a melting point of 73 to 75 °C.

Molecule `COCCOc1ccc(CCC(=O)NS(=O)(=O)c2ccc(F)cc2)c(Oc2ncc(C(F)(F)F)cc2Cl)c1` [Example 11, 3-[2-{[3-chloro-5-(trifluoromethyl)pyridin-2-yl]oxy}-4-(2-methoxyethoxy)phenyl]-N-[(4-fluorophenyl)sulfonyl]propanamide] returned a melting point of 136 to 138 °C. To `CCCCCS(=O)(=O)NC(=O)CCc1cc(OCc2nnc(C)o2)nn1Cc1ccc(Cl)cc1Cl` [Example 105, 3-{1-(2,4-dichlorobenzyl)-3-[(5-methyl-1,3,4-oxadiazol-2-yl)methoxy]-1H-pyrazol-5-yl}-N-(pentylsulfonyl)propanamide] belongs 156 to 158 °C. In the case of `CCCCCS(=O)(=O)NC(=O)/C=C/c1ccc(OCC(C)(C)O)cc1Oc1ncc(C(F)(F)F)cc1Cl` (as salt: acetate) (hydrate or solvate) [Example 250, (2E)-3-[2-{[3-chloro-5-(trifluoromethyl)pyridin-2-yl]oxy}-4-(2-hydroxy-2-methylpropoxy)phenyl]-N-(pentylsulfonyl)acrylamide], the melting point was 98 to 100 °C.

For the molecule `COCCOc1ccc(/C=C(\C)C(=O)NS(=O)(=O)C(F)(F)F)c(Oc2ncc(C(F)(F)F)cc2Cl)c1` [Example 245, (2E)-3-[2-{[3-chloro-5-(trifluoromethyl)pyridin-2-yl]oxy}-4-(2-methoxyethoxy)phenyl]-2-methyl-N-[(trifluoromethyl)sulfonyl]acrylamide], the melting point lay in the range of 146 to 147 °C.

`CCCCCS(=O)(=O)NC(=O)CCc1ccc(OC(C)C)cc1OCc1ccc(Cl)cc1Cl` [Example 42, 3-{2-[(2,4-dichlorobenzyl)oxy]-4-isopropoxyphenyl}-N-(pentylsulfonyl)propanamide]: the melting point was in the range of 120 to 120.5 °C. To `COCCCNS(=O)(=O)NC(=O)/C(C)=C/c1ccc(OC(C)C)cc1Oc1ncc(C(F)(F)F)cc1Cl` [Example 221, (2E)-3-(2-{[3-chloro-5-(trifluoromethyl)pyridin-2-yl]oxy}-4-isopropoxyphenyl)-N-{[(3-methoxypropyl)amino]sulfonyl}-2-methylacrylamide] belongs 120 to 121 °C; to `COCCOc1ccc(/C=C/C(=O)NS(=O)(=O)C(F)(F)F)c(Oc2ncc(C(F)(F)F)cc2Cl)c1` [Example 243, (2E)-3-[2-{[3-chloro-5-(trifluoromethyl)pyridin-2-yl]oxy}-4-(2-methoxyethoxy)phenyl]N-[(trifluoromethyl)sulfonyl]acrylamide], 125.5 to 128 °C; to `CCCCCS(=O)(=O)NC(=O)/C=C/c1ccc(OCC2CCCO2)cc1Oc1ncc(C(F)(F)F)cc1Cl` (stereo not shown) [Example 195, (2E)-3-[2-{[3-chloro-5-(trifluoromethyl)pyridin-2-yl]oxy}-4-(tetrahydrofuran-2-ylmethoxy)phenyl]-N-(pentylsulfonyl)acrylamide], 126.5 to 128.5 °C. Under `COCCOc1ccc(CCCNS(C)(=O)=O)c(Oc2ncc(C(F)(F)F)cc2Cl)c1` [Example 15, N-{3-[2-{[3-chloro-5-(trifluoromethyl)pyridin-2-yl]oxy}-4-(2-methoxyethoxy)phenyl]propyl}methanesulfonamide] stands 89 to 90 °C; under `COCCOc1ccc(/C=C(\C)C(=O)NS(=O)(=O)c2ccc(Cl)cc2)c(Oc2ncc(C(F)(F)F)cc2Cl)c1` [Example 230, (2E)-N-[(4-chlorophenyl)sulfonyl]-3-[2-{[3-chloro-5-(trifluoromethyl)pyridin-2-yl]oxy}-4-(2-methoxyethoxy)phenyl]-2-methylacrylamide], 145.7 to 145.8 °C; under `COCCOc1ccc(CCCNS(=O)(=O)CCCc2ccccc2)c(Oc2ncc(C(F)(F)F)cc2Cl)c1` [Example 21, N-{3-[2-{[3-chloro-5-(trifluoromethyl)pyridin-2-yl]oxy}-4-(2-methoxyethoxy)phenyl]propyl}-3-phenylpropane-1-sulfonamide], 101.8 to 102 °C. `CCCCN(C(=O)CCc1ccc(OCCOC)cc1Oc1ncc(C(F)(F)F)cc1Cl)S(N)(=O)=O` [Example 212, N-(aminosulfonyl)-N-butyl-3-[2-{[3-chloro-5-(trifluoromethyl)pyridin-2-yl]oxy}-4-(2-methoxyethoxy)phenyl]propanamide] came in with a melting point of 102 to 103 °C. `CCCCCS(=O)(=O)NC(=O)/C=C/c1cc(OCCCC)nn1Cc1ccc(Cl)cc1Cl` [Example 98, (2E)-3-[3-butoxy-1-(2,4-dichlorobenzyl)-1H-pyrazol-5-yl]-N-(pentylsulfonyl)acrylamide] displayed a melting point of 95 to 98 °C. `COCCOc1ccc(/C=C/C(=O)NS(=O)(=O)c2cccc(Cl)c2)c(Oc2ncc(C(F)(F)F)cc2Cl)c1` [Example 232, (2E)-N-[(3-chlorophenyl)sulfonyl]-3-[2-{[3-chloro-5-(trifluoromethyl)pyridin-2-yl]oxy}-4-(2-methoxyethoxy)phenyl]acrylamide] had a melting point of 157 to 158 °C. Under `CCCCCS(=O)(=O)NC(=O)CC(C)c1ccc(OCCOC)cc1Oc1ncc(C(F)(F)F)cc1Cl` (stereo not shown) [Example 77, 3-[2-{[3-chloro-5-(trifluoromethyl)pyridin-2-yl]oxy}-4-(2-methoxyethoxy)phenyl]-N-(pentylsulfonyl)butanamide] stands 136.9 to 137.1 °C. Take `COCCCS(=O)(=O)NC(=O)CCc1cc(C(C)(C)C)nn1Cc1ccc(C(F)(F)F)cc1Cl` [Example 123, 3-{3-tert-butyl-1-[2-chloro-4-(trifluoromethyl)benzyl]-1H-pyrazol-5-yl}-N-[(3-methoxypropyl)sulfonyl]propanamide]: the melting point fell in the range of 149 to 150 °C. To `CC(C)Oc1cc(CCC(=O)NS(=O)(=O)C2CCCCC2)n(Cc2ccc(Cl)cc2Cl)n1` [Example 90, N-(cyclohexylsulfonyl)-3-[1-(2,4-dichlorobenzyl)-3-isopropoxy-1H-pyrazol-5-yl]propanamide] belongs 137 to 138 °C.

Take `COCCOc1cc(/C=C/C(=O)NS(=O)(=O)CCC(C)C)n(Cc2ccc(Cl)cc2Cl)n1` [Example 110, (2E)-3-[1-(2,4-dichlorobenzyl)-3-(2-methoxyethoxy)-1H-pyrazol-5-yl]-N-[(3-methylbutyl)sulfonyl]acrylamide]: the melting point is 110 to 114 °C. To `CCCCCS(=O)(=O)NC(=O)/C=C/c1ccc(OCCOC)cc1NC(=O)c1ccc(Cl)cc1Cl` [Example 189, 2,4-dichloro-N-(5-(2-methoxyethoxy)-2-{(1E)-3-oxo-3-[(pentylsulfonyl)amino]prop-1-en-1-yl}phenyl)benzamide] belongs 176.8 to 177.1 °C; to `CC(C)CCS(=O)(=O)NC(=O)CCc1cc(OC(C)C)nn1Cc1ccc(Cl)cc1Cl` [Example 92, 3-[1-(2,4-dichlorobenzyl)-3-isopropoxy-1H-pyrazol-5-yl]-N-[(3-methylbutyl)sulfonyl]propanamide], 143 to 145 °C.

`CCCCCNS(=O)(=O)NC(=O)OCc1ccc(OCCOC)cc1Oc1ncc(C(F)(F)F)cc1Cl` [Example 61, 2-{[3-chloro-5-(trifluoromethyl)pyridin-2-yl]oxy}-4-(2-methoxyethoxy)benzyl [(pentylamino)sulfonyl]carbamate] returned a melting point of 153 to 155 °C. `CCCCCS(=O)(=O)NC(=O)CCc1ccc(OCCOC)cc1OCC1CCCCC1` [Example 159, 3-[2-(cyclohexylmethoxy)-4-(2-methoxyethoxy)phenyl]-N-(pentylsulfonyl)propanamide] returned a melting point of 81 to 82 °C. For `CC(C)Oc1cc(/C=C/S(=O)(=O)NC(=O)OC(C)(C)C)n(Cc2ccc(Cl)cc2Cl)n1` [Example 124, tert-butyl ({(E)-2-[1-(2,4-dichlorobenzyl)-3-isopropoxy-1H-pyrazol-5-yl]vinyl}sulfonyl)carbamate], the melting point was 152 to 153 °C. Consider `CCCCCS(=O)(=O)NC(=O)CCc1cc(OC(C)C)nn1Cc1ccc(F)cc1F` [Example 80, 3-[1-(2,4-difluorobenzyl)-3-isopropoxy-1H-pyrazol-5-yl]-N-(pentylsulfonyl)propanamide], for which the melting point is 107 to 108 °C.

One may read the melting point as the temperature of the solid-liquid transition.
